The record followed here is ChEMBL document CHEMBL2016514, “Homobivalent ligands of the atypical antipsychotic clozapine: design, synthesis, and pharmacological evaluation” (J Med Chem, 2012).

Some results are limits rather than exact numbers.

In general, pIC50 refers to the IC50 on a negative log10 scale, so that one unit is a factor of ten.

Assay [1] concerns the target T1, D(2) dopamine receptor (Homo sapiens, UniProt P14416). The assay is described as follows: Inhibition of human dopamine D2L receptor expressed in intact CHO FlpIn cells assessed as inhibition of receptor-mediated mediated ERK1/2 phosphorylation by Alpha-Screen plate-based assay. It counts as cell-based.
Assay [2] has as its target T1, D(2) dopamine receptor. Description: Displacement of [3H]-spiperone from human dopamine D2L receptor expressed in CHO FlpIn cell membrane measured after 3 hrs by topcount scintillation counting. In general terms: Displacement assays read how much labelled ligand stays bound in the presence of the test substance.

T1 sequence (P14416 whole entry): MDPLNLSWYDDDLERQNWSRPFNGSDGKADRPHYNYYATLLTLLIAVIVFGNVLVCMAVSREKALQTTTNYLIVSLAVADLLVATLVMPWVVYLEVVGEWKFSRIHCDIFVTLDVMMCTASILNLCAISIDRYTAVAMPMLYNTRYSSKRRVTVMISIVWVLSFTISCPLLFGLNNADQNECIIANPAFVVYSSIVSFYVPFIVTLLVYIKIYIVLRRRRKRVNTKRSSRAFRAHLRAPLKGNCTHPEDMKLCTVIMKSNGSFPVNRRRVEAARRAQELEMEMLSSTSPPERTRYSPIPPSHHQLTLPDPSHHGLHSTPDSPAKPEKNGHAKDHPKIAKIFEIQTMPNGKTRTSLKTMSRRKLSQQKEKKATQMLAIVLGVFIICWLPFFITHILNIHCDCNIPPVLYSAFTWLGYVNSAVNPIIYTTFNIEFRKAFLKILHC

With `CCCCCCCCCC(=O)N1c2ccc(Cl)cc2N=C(N2CCN(C)CC2)c2ccccc21`, the IC50 on D(2) dopamine receptor [1] (read-out: IC50) was 776 nM. As for `CN1CCN(C2=Nc3cc(Cl)ccc3N(C(=O)CCCCCCC(=O)N3c4ccc(Cl)cc4N=C(N4CCN(C)CC4)c4ccccc43)c3ccccc32)CC1`, the IC50 on D(2) dopamine receptor [1] (read-out: IC50) was 2660 nM; on D(2) dopamine receptor [1] (read-out: pIC50 (converted)), 1780 nM. Turning to `CN1CCN(C2=Nc3cc(Cl)ccc3N(C(=O)CCCCCCCCC(=O)N3c4ccc(Cl)cc4N=C(N4CCN(C)CC4)c4ccccc43)c3ccccc32)CC1`, the pIC50 on D(2) dopamine receptor [1] (cho) was less than 5. Further, the IC50 on D(2) dopamine receptor [1] (read-out: IC50) was more than 10000 nM.

`CN1CCN(C2=Nc3cc(Cl)ccc3N(C(=O)CCCCCCCCCCC(=O)N3c4ccc(Cl)cc4N=C(N4CCN(C)CC4)c4ccccc43)c3ccccc32)CC1`: at D(2) dopamine receptor [1] (cho), the pIC50 is less than 5. The IC50 on D(2) dopamine receptor [1] (read-out: IC50) is more than 10000 nM.

Take `CN1CCN(C2=Nc3cc(Cl)ccc3N(C(=O)CCCCCCCCCCCCC(=O)N3c4ccc(Cl)cc4N=C(N4CCN(C)CC4)c4ccccc43)c3ccccc32)CC1`: at D(2) dopamine receptor [1] (cho), the pIC50 is less than 5. For the same compound, the IC50 at D(2) dopamine receptor [1] (read-out: IC50) is more than 10000 nM. Turning to `CN1CCN(C2=Nc3cc(Cl)ccc3N(C(=O)CCCCCCCCCCCCCCCCC(=O)N3c4ccc(Cl)cc4N=C(N4CCN(C)CC4)c4ccccc43)c3ccccc32)CC1`, the pIC50 at D(2) dopamine receptor [1] (cho) is recorded as less than 5. Moreover, at D(2) dopamine receptor [1] (read-out: IC50), the IC50 was more than 10000 nM.

On to `CN1CCN(C2=Nc3cc(Cl)ccc3N(C(=O)CCCCCCCCCCCCCCCCCCC(=O)N3c4ccc(Cl)cc4N=C(N4CCN(C)CC4)c4ccccc43)c3ccccc32)CC1`, for which the pIC50 on D(2) dopamine receptor [1] (cho) was less than 5. Besides, the IC50 on D(2) dopamine receptor [1] (read-out: IC50) was more than 10000 nM. With `CCCCCCCCCC(=O)NN1c2ccc(Cl)cc2N=C(N2CCN(C)CC2)c2ccccc21`, the IC50 at D(2) dopamine receptor [1] (read-out: IC50) is 8940 nM. As to `CN1CCN(C2=Nc3cc(Cl)ccc3N(NC(=O)CCCCC(=O)NN3c4ccc(Cl)cc4N=C(N4CCN(C)CC4)c4ccccc43)c3ccccc32)CC1`, the values for the IC50 on D(2) dopamine receptor [1] (read-out: IC50) and on D(2) dopamine receptor [1] (read-out: pIC50 (converted)) were 2080 nM and 2040 nM, respectively. `CN1CCN(C2=Nc3cc(Cl)ccc3N(NC(=O)CCCCCCC(=O)NN3c4ccc(Cl)cc4N=C(N4CCN(C)CC4)c4ccccc43)c3ccccc32)CC1`: at D(2) dopamine receptor [1] (read-out: IC50), the IC50 came out at 2440 nM. Turning to `CN1CCN(C2=Nc3cc(Cl)ccc3N(NC(=O)CCCCCCCCC(=O)NN3c4ccc(Cl)cc4N=C(N4CCN(C)CC4)c4ccccc43)c3ccccc32)CC1`, the pIC50 at D(2) dopamine receptor [1] (cho) was less than 5. Besides, the IC50 at D(2) dopamine receptor [1] (read-out: IC50) is more than 10000 nM. Consider `CN1CCN(C2=Nc3cc(Cl)ccc3N(NC(=O)CCCCCCCCCCC(=O)NN3c4ccc(Cl)cc4N=C(N4CCN(C)CC4)c4ccccc43)c3ccccc32)CC1`, for which the pIC50 at D(2) dopamine receptor [1] (cho) is recorded as less than 5. Moreover, the IC50 on D(2) dopamine receptor [1] (read-out: IC50) was more than 10000 nM. On the same counts, the results for `CN1CCN(C2=Nc3cc(Cl)ccc3N(NC(=O)CCCCCCCCCCCCC(=O)NN3c4ccc(Cl)cc4N=C(N4CCN(C)CC4)c4ccccc43)c3ccccc32)CC1` are less than 5 and more than 10000 nM. On the same counts, the results for `CN1CCN(C2=Nc3cc(Cl)ccc3N(NC(=O)CCCCCCCCCCCCCCCCC(=O)NN3c4ccc(Cl)cc4N=C(N4CCN(C)CC4)c4ccccc43)c3ccccc32)CC1` are less than 5 and more than 10000 nM.

`CN1CCN(C2=Nc3cc(Cl)ccc3N(NC(=O)CCCCCCCCCCCCCCCCCCC(=O)NN3c4ccc(Cl)cc4N=C(N4CCN(C)CC4)c4ccccc43)c3ccccc32)CC1`: on D(2) dopamine receptor [1] (cho), the pIC50 is given as less than 5. Also, the IC50 on D(2) dopamine receptor [1] (read-out: IC50) is more than 10000 nM. With `CN1CCN(C2=Nc3cc(Cl)ccc3N(NC(=O)CCC(=O)N3CCN(C(=O)CCC(=O)NN4c5ccc(Cl)cc5N=C(N5CCN(C)CC5)c5ccccc54)CC3)c3ccccc32)CC1`, the IC50 at D(2) dopamine receptor [1] (read-out: IC50) is 1620 nM. Consider `CN1CCN(C2=Nc3cc(Cl)ccc3N(NC(=O)CCCC(=O)N3CCN(C(=O)CCCC(=O)NN4c5ccc(Cl)cc5N=C(N5CCN(C)CC5)c5ccccc54)CC3)c3ccccc32)CC1`, for which, on D(2) dopamine receptor [1] (read-out: IC50), the IC50 was determined as 2630 nM.

Turning to `CN1CCN(C2=Nc3cc(Cl)ccc3N(NC(=O)CCC(=O)OCCOC(=O)CCC(=O)NN3c4ccc(Cl)cc4N=C(N4CCN(C)CC4)c4ccccc43)c3ccccc32)CC1`, the IC50 on D(2) dopamine receptor [1] (read-out: IC50) amounted to 2410 nM. As to `CCCCCCCCCC(=O)NCCCN1CCN(C2=Nc3cc(Cl)ccc3Nc3ccccc32)CC1`, the Ki is 9.1 nM on D(2) dopamine receptor [2] (read-out: Ki) and 8.91 nM on D(2) dopamine receptor [2] (read-out: pKi (converted)). In addition, on D(2) dopamine receptor [1] (read-out: IC50), the IC50 came out at 1460 nM.

Consider `O=C(CCCCC(=O)NCCCN1CCN(C2=Nc3cc(Cl)ccc3Nc3ccccc32)CC1)NCCCN1CCN(C2=Nc3cc(Cl)ccc3Nc3ccccc32)CC1`, for which the figures for the Ki on D(2) dopamine receptor [2] (read-out: Ki) and on D(2) dopamine receptor [2] (read-out: pKi (converted)) were 3.6 nM and 3.16 nM, respectively. The IC50 on D(2) dopamine receptor [1] (read-out: IC50) is 87 nM.

Consider `O=C(CCCCCCC(=O)NCCCN1CCN(C2=Nc3cc(Cl)ccc3Nc3ccccc32)CC1)NCCCN1CCN(C2=Nc3cc(Cl)ccc3Nc3ccccc32)CC1`, for which the Ki was 1.41 nM at D(2) dopamine receptor [2] (read-out: Ki) and 1.35 nM on D(2) dopamine receptor [2] (read-out: pKi (converted)). The IC50 at D(2) dopamine receptor [1] (read-out: IC50) worked out at 23 nM. With `O=C(CCCCCCCCC(=O)NCCCN1CCN(C2=Nc3cc(Cl)ccc3Nc3ccccc32)CC1)NCCCN1CCN(C2=Nc3cc(Cl)ccc3Nc3ccccc32)CC1`, the values for the Ki at D(2) dopamine receptor [2] (read-out: Ki) and on D(2) dopamine receptor [2] (read-out: pKi (converted)) were 1.35 nM and 1.23 nM, respectively. In addition, the IC50 on D(2) dopamine receptor [1] (read-out: IC50) turned out to be 44 nM. With `O=C(CCCCCCCCCCC(=O)NCCCN1CCN(C2=Nc3cc(Cl)ccc3Nc3ccccc32)CC1)NCCCN1CCN(C2=Nc3cc(Cl)ccc3Nc3ccccc32)CC1`, the IC50 is 1120 nM on D(2) dopamine receptor [1] (read-out: IC50) and 1100 nM on D(2) dopamine receptor [1] (read-out: pIC50 (converted)).

Take `O=C(CCCCCCCCCCCCC(=O)NCCCN1CCN(C2=Nc3cc(Cl)ccc3Nc3ccccc32)CC1)NCCCN1CCN(C2=Nc3cc(Cl)ccc3Nc3ccccc32)CC1`: the IC50 at D(2) dopamine receptor [1] (read-out: IC50) was 11000 nM. Consider `O=C(CCCCCCCCCCCCCCCCC(=O)NCCCN1CCN(C2=Nc3cc(Cl)ccc3Nc3ccccc32)CC1)NCCCN1CCN(C2=Nc3cc(Cl)ccc3Nc3ccccc32)CC1`, for which the Ki on D(2) dopamine receptor [2] (read-out: Ki) is 269 nM; on D(2) dopamine receptor [2] (read-out: pKi (converted)), 245 nM. The IC50 on D(2) dopamine receptor [1] (read-out: IC50) was found to be 7800 nM. On to `O=C(CCCCCCCCCCCCCCCCCCC(=O)NCCCN1CCN(C2=Nc3cc(Cl)ccc3Nc3ccccc32)CC1)NCCCN1CCN(C2=Nc3cc(Cl)ccc3Nc3ccccc32)CC1`, for which the IC50 at D(2) dopamine receptor [1] (cho, read-out: IC50) is more than 10000 nM; at D(2) dopamine receptor [1] (read-out: pIC50 (converted)) it was more than 10000 nM.
